Active and inactive are the calls of the source. The rule behind the calls is not given here.
Columns and labels:
Poliovirus 2 [1] = assay: Antiviral activity against Poliovirus type 2 infected in african green monkey Vero cells assessed as reduction in viral titer at 5 ug/mL; type: functional, organism-based
Vero [2] = assay: Cytotoxicity against african green monkey Vero cells assessed as cell lysis at >800 uM after 96 hrs; type: cell-based; details: chlorocebus sabaeus
Human adenovirus 2 [3] = assay: Antiviral activity against 10^-2 MOI Human adenovirus 2 infected in african green monkey Vero cells assessed as inhibition of virus-induced cytopathic effect; type: functional; details: Human mastadenovirus C, read-out: ED50 (the source's name)
Human adenovirus 2 [4] = assay: Antiviral activity against 10^-3 MOI Human adenovirus 2 infected in african green monkey Vero cells assessed as inhibition of virus-induced cytopathic effect; type: functional; details: Human mastadenovirus C, read-out: ED50 (the source's name)
[5] = Therapeutic index, ratio of CyD50 for african green monkey Vero cells to ED50 for 10^-2 MOI Human adenovirus 2; type: cell-based; details: read-out: TI
Human alphaherpesvirus 1 [6] = assay: Antiviral activity against 10^-2 MOI HSV1 infected in african green monkey Vero cells assessed as inhibition of virus-induced cytopathic effect; type: functional, organism-based
Human alphaherpesvirus 1 [7] = assay: Antiviral activity against 10^-3 MOI HSV1 infected in african green monkey Vero cells assessed as inhibition of virus-induced cytopathic effect; type: functional; details: Human alphaherpesvirus 1, Vero; read-out: ED50 (the source's name)
[8] = Therapeutic index, ratio of CyD50 for african green monkey Vero cells to ED50 for 10^-3 MOI HSV1; type: cell-based; details: read-out: TI
Human alphaherpesvirus 2 [9] = assay: Antiviral activity against 10^-2 MOI HSV2 infected in african green monkey Vero cells assessed as inhibition of virus-induced cytopathic effect; type: functional; details: Human alphaherpesvirus 2, Vero; read-out: ED50 (the source's name)
Human alphaherpesvirus 2 [10] = assay: Antiviral activity against 10^-3 MOI HSV2 infected in african green monkey Vero cells assessed as inhibition of virus-induced cytopathic effect; type: functional; details: Human alphaherpesvirus 2, Vero; read-out: ED50 (the source's name)
[11] = Therapeutic index, ratio of CyD50 for african green monkey Vero cells to ED50 for 10^-2 MOI HSV2; type: cell-based; details: read-out: TI
[12] = tested on: Vesicular stomatitis virus; assay: Antiviral activity against 10^-2 MOI VSV infected in african green monkey Vero cells assessed as inhibition of virus-induced cytopathic effect; type: functional; details: read-out: ED50 (the source's name)
[13] = tested on: Vesicular stomatitis virus; assay: Antiviral activity against 10^-3 MOI VSV infected in african green monkey Vero cells assessed as inhibition of virus-induced cytopathic effect; type: functional; details: read-out: ED50 (the source's name)
[14] = Therapeutic index, ratio of CyD50 for african green monkey Vero cells to ED50 for 10^-2 MOI VSV; type: cell-based; details: read-out: TI
[15] = Therapeutic index, ratio of CyD50 for african green monkey Vero cells to ED50 for 10^-3 MOI VSV; type: cell-based; details: read-out: TI
Poliovirus 2 [16] = assay: Antiviral activity against 10^-2 MOI Poliovirus type 2 infected in african green monkey Vero cells assessed as inhibition of virus-induced cytopathic effect; type: functional; details: Enterovirus C, read-out: ED50 (the source's name)
Poliovirus 2 [17] = assay: Antiviral activity against 10^-3 MOI Poliovirus type 2 infected in african green monkey Vero cells assessed as inhibition of virus-induced cytopathic effect; type: functional; details: Enterovirus C, read-out: ED50 (the source's name)
[18] = Therapeutic index, ratio of CyD50 for african green monkey Vero cells to ED50 for 10^-2 MOI Poliovirus 2; type: cell-based; details: read-out: TI
[19] = Therapeutic index, ratio of CyD50 for african green monkey Vero cells to ED50 for 10^-3 MOI Poliovirus 2; type: cell-based; details: read-out: TI
[20] = Therapeutic index, ratio of CyD50 for african green monkey Vero cells to ED50 for 10^-3 MOI Human adenovirus 2; type: cell-based; details: read-out: TI
[21] = Therapeutic index, ratio of CyD50 for african green monkey Vero cells to ED50 for 10^-3 MOI HSV2; type: cell-based; details: read-out: TI
Vero [22] = assay: Cytotoxicity against african green monkey Vero cells up to 200 uM after 96 hrs; type: cell-based; details: chlorocebus sabaeus
Vero [23] = assay: Cytotoxicity against african green monkey Vero cells up to 800 uM after 96 hrs; type: cell-based; details: chlorocebus sabaeus
Vero [24] = assay: Cytotoxicity against african green monkey Vero cells assessed as cell lysis at >200 uM after 96 hrs; type: cell-based; details: chlorocebus sabaeus
Poliovirus 2 [25] = assay: Antiviral activity against Poliovirus type 2 infected in african green monkey Vero cells assessed as log reduction in viral titer at 1.12 ug/mL; type: functional
Human adenovirus 2 [26] = assay: Antiviral activity against Human adenovirus 2 infected in african green monkey Vero cells assessed as log reduction in viral titer; type: functional
Human alphaherpesvirus 2 [27] = assay: Antiviral activity against HSV2 infected in african green monkey Vero cells assessed as log reduction in viral titer; type: functional
[28] = tested on: Vesicular stomatitis virus; assay: Antiviral activity against VSV infected in african green monkey Vero cells assessed as log reduction in viral titer; type: functional
Human alphaherpesvirus 1 [29] = assay: Antiviral activity against HSV1 infected in african green monkey Vero cells assessed as log reduction in viral titer; type: functional

## COc1c(-c2ccc(O)c(O)c2)oc2cc(O)cc(O)c2c1=O
Poliovirus 2 [1]
  Activity: Active

## COc1c(-c2ccc3c(c2)OCO3)oc2cc3c(c(OC)c2c1=O)OCO3 [MELITERNATIN]
Vero [2]
  Activity: Toxic

## COc1cc(-c2oc3c(OC)c(OC)cc(O)c3c(=O)c2OC)ccc1O [TERNATIN]
Human adenovirus 2 [3]
  EC50: 10 µM
Human adenovirus 2 [4]
  EC50: 10 µM
[5]
  selectivity ratio: 20
Human alphaherpesvirus 1 [6]
  ED50: inactive
Human alphaherpesvirus 1 [7]
  EC50: 44 µM
[8]
  selectivity ratio: 4.6
Human alphaherpesvirus 2 [9]
  EC50: 100 µM
Human alphaherpesvirus 2 [10]
  EC50: 14 µM
[11]
  selectivity ratio: 2
[12]
  EC50: 48 µM
[13]
  EC50: 38 µM
[14]
  selectivity ratio: 4.2
[15]
  selectivity ratio: 5.2
Poliovirus 2 [16]
  EC50: 4 µM
Poliovirus 2 [17]
  EC50: 3 µM
[18]
  selectivity ratio: 50
[19]
  selectivity ratio: 66.6
[20]
  selectivity ratio: 20
[21]
  selectivity ratio: 14.4
Vero [22]
  Activity: Non-toxic
Vero [23]
  Activity: Non-toxic
Vero [24]
  Activity: Toxic
Poliovirus 2 [25]
  Activity: 5
Human adenovirus 2 [26]
  Activity: 3
Human alphaherpesvirus 2 [27]
  Activity: 2
[28]
  Activity: 2
Human alphaherpesvirus 1 [29]
  Activity: 1
